Key:
[1] = Dissolution kinetics in water at 60° C., followed by UV/Vis spectroscopy (absorbance at 310 nm); assay type: physicochemical
Description: The dissolution process was followed on-line by monitoring the UV signal of dissolved (E)-3-(3,4-dimethoxyphenyl)-N-(4-methoxyphenethyl)acrylamide with UV/Vis spectroscopy (measuring absorbance at 310 nm). The dissolution process yielded 50% of the target concentration of 20 ppm of (E)-3-(3,4-dimethoxyphenyl)-N-(4-methoxyphenethyl)acrylamide (10 ppm) after 1.5 minutes, and 95% (19 ppm) after 17 minutes.
20 mg of (E)-3-(3,4-dimethoxyphenyl)-N-(4-methoxyphenethyl)acrylamide were dispersed in 1 L of water at 60° C. The dissolution process yielded 50% of the target concentration of 20 ppm (10 ppm) after 78 minutes (factor 50 slower compared to example 1). 95% (19 ppm) of the target concentration could not be achieved after 6 hours. The concentration of dissolved (E)-3-(3,4-dimethoxyphenyl)-N-(4-methoxyphenethyl)acrylamide after 6 hours was 15 ppm (75% of target).
1.8 g of (E)-3-(3,4-dimethoxyphenyl)-N-(4-methoxyphenethyl)acrylamide and 1.8 g betaine were mixed with 116 g of a mixture of ethanol and water (50:50 w/w). The dispersion was heated to 60° C. until complete dissolution of the solid material. The solution was kept at 60° C., spray dried, and a fine, white powder was obtained. […] The dissolution process yielded 50% of the target concentration of 20 ppm of (E)-3-(3,4-dimethoxyphenyl)-N-(4-methoxyphenethyl)acrylamide (10 ppm) after 2.5 minutes, and 95% (19 ppm) after 29 minutes.

trained panelists [2] = test: Evaluation of the umami effect in hot water by trained panelists; assay type: in vivo; conditions: 20 ppm compound or 40 ppm solid dispersion (50:50 w/w), 4 trained panelists, blind, after 5 minutes
Description: (§1) The solutions were presented to 4 trained panelists on a blind test basis after 5 minutes. They were asked to rate the samples for the umami taste intensity from 0 to 10 (0 denoted no umami effect, and 10 denoted very strong umami taste). The sample according to the invention was rated higher in umami intensity (5.0) than the comparative sample (3.8).

trained panelists [3] = test: Evaluation of the umami effect in cold water by trained panelists; assay type: in vivo; conditions: cold water (room temperature); 20 ppm compound or 40 ppm solid dispersion (50:50 w/w); 4 trained panelists, blind, after 5 minutes
Description: as §1
The solutions were presented to 4 trained panelists on a blind test basis after 5 minutes. The sample according to the invention was rated higher in umami intensity (3.4) than the comparative sample (2.5).

trained panelists [4] = test: Evaluation of the umami effect in hot chicken bouillon by trained panelists; assay type: in vivo; conditions: 20 ppm compound or 40 ppm solid dispersion (50:50 w/w), 4 trained panelists, blind, after 5 minutes
Description: as §1
The bouillons were presented to 4 trained panelists on a blind test basis after 5 minutes. The sample according to the invention was rated higher in umami intensity (6.5) than the comparative sample (5.5).

time until 95% (19 ppm) of the target concentration (could not be achieved) ([1]; 20 mg in 1 L of water at 60° C.): > 6 h | concentration of dissolved compound after 6 hours ([1]; 20 mg in 1 L of water at 60° C., after 6 hours): 15 ppm | dissolved compound after 6 hours as % of target ([1]; 20 mg in 1 L of water at 60° C., after 6 hours, target 20 ppm): 75% | time until dissolution yielded 50% of the target concentration of 20 ppm (10 ppm) ([1]; 1 L of water at 60° C., target 20 ppm of the amide): 78 min | factor slower compared to example 1 (time to 50% of target concentration) ([1]; water at 60° C.): 50
Compound: COc1ccc(CCNC(=O)/C=C/c2ccc(OC)c(OC)c2)cc1 [(E)-3-(3,4-dimethoxyphenyl)-N-(4-methoxyphenethyl)acrylamide]
umami taste intensity rating from 0 to 10 (trained panelists [2]): 3.8 | umami intensity rating (trained panelists [3]): 2.5 | umami intensity rating (trained panelists [4]): 5.5
